We go through 14 molecules from ChEMBL document CHEMBL5042531, “N-Substituted 5-(1H-Indol-2-yl)-2-methoxyanilines Are Allosteric Inhibitors of the Linoleate Oxygenase Activity of Selected Mammalian ALOX15 Orthologs: Mechanism of Action” (J Med Chem, 2022).

The target in series [1] is T1, Polyunsaturated fatty acid lipoxygenase ALOX15 (Oryctolagus cuniculus, UniProt P12530).
T1 sequence (P12530 whole entry): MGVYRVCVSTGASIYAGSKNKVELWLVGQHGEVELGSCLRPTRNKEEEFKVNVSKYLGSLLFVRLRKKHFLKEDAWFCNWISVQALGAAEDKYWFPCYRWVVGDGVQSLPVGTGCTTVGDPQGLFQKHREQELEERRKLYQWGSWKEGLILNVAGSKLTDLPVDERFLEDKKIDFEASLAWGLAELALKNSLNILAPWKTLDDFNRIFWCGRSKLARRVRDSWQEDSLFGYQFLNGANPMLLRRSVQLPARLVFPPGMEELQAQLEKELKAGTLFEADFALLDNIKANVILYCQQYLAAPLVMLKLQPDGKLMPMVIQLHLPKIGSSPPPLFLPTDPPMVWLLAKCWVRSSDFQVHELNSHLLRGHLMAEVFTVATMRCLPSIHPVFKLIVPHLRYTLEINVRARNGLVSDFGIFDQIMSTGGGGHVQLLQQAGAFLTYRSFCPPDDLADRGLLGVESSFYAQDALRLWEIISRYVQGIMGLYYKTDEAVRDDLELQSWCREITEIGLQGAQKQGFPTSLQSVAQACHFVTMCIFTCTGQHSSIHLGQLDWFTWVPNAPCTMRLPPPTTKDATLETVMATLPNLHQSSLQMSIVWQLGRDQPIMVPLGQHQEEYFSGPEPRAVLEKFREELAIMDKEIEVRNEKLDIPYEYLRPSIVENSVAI
Nature of the series: Inhibition of wild type rabbit N-terminal His-tagged ALOX15 expressed in Escherichia coli using linoleic acid as substrate by spectrophotometric assay.

Series [2] has as its target T1, Polyunsaturated fatty acid lipoxygenase ALOX15. The series is described as follows: Inhibition of wild type rabbit N-terminal His-tagged ALOX15 expressed in Escherichia coli using arachidonic acid as substrate by spectrophotometric assay.
Series [3] deals with T2, Polyunsaturated fatty acid lipoxygenase ALOX15 (Oryctolagus cuniculus) (UniProt P12530).
T2 sequence (whole entry): T1 sequence (P12530 whole entry)
Nature of the series: Selectivity ratio of IC50 for inhibition of wild type rabbit N-terminal His-tagged ALOX15 expressed in Escherichia coli using linoleic acid as substrate to IC50 for inhibition of wild type rabbit N-terminal His-tagged ALOX15 expressed in Escherichia coli using arachidonic acid as substrate.

Series [4] concerns the target T1, Polyunsaturated fatty acid lipoxygenase ALOX15. The series is described as follows: Mixed mode inhibition of wild type Rabbit N-terminal His-tagged ALOX15 expressed in Escherichia coli assessed as inhibition constant using arachidonic acid as substrate.
The species entered for series [5] is Oryctolagus cuniculus. Nature of the series: Effect on rabbit wild type ALOX15 Ile418Ala mutant-mediated product pattern using arachidonic acid as substrate by 4 uM by RP-HPLC analysis.
Series [6] concerns the target T1, Polyunsaturated fatty acid lipoxygenase ALOX15. Nature of the series: Non-competitive inhibition of wild type rabbit N-terminal His-tagged ALOX15 expressed in Escherichia coli assessed as inhibition constant using linoleic acid as substrate.
The target of series [7] is T2, Polyunsaturated fatty acid lipoxygenase ALOX15 (Oryctolagus cuniculus). The series is described as follows: Selectivity ratio of IC50 for inhibition of wild type Rabbit N-terminal His-tagged ALOX15 expressed in Escherichia coli using linoleic acid as substrate to IC50 for inhibition of wild type rabbit N-terminal His-tagged ALOX15 expressed in Escherichia coli using arachidonic acid as substrate by spectrophotometric assay.

Series [8] is described as follows: Inhibition of rabbit N-terminal His-tagged ALOX15 L183E/L192E double mutant expressed in Escherichia coli linoleic acid as substrate by spectrophotometric assay. More on the design: species or system Oryctolagus cuniculus.
Series [9] concerns the target T2, Polyunsaturated fatty acid lipoxygenase ALOX15 (Oryctolagus cuniculus). The series is described as follows: Effect on rabbit wild type ALOX15-mediated product pattern using arachidonic acid as substrate by 4 uM by RP-HPLC analysis.
Series [10] is described as follows: Inhibition of rabbit N-terminal His-tagged ALOX15 L183E/L192E double mutant expressed in Escherichia coli arachidonic acid as substrate by spectrophotometric assay. More on the design: species or system Oryctolagus cuniculus.
The target of series [11] is T1, Polyunsaturated fatty acid lipoxygenase ALOX15. Nature of the series: Mixed mode inhibition of wild type Rabbit N-terminal His-tagged ALOX15 expressed in Escherichia coli assessed as inhibition constant using linoleic acid as substrate.
For series [12], the species on record is Oryctolagus cuniculus. Nature of the series: Effect on rabbit wild type ALOX15 Ile418Ala mutant-mediated product pattern assessed as reduction in 12-H(p)ETE formation using arachidonic acid as substrate by 4 uM by RP-HPLC analysis.
The target in series [13] is T3, Polyunsaturated fatty acid lipoxygenase ALOX15 (Mus musculus) (UniProt P39654).
T3 sequence (whole entry): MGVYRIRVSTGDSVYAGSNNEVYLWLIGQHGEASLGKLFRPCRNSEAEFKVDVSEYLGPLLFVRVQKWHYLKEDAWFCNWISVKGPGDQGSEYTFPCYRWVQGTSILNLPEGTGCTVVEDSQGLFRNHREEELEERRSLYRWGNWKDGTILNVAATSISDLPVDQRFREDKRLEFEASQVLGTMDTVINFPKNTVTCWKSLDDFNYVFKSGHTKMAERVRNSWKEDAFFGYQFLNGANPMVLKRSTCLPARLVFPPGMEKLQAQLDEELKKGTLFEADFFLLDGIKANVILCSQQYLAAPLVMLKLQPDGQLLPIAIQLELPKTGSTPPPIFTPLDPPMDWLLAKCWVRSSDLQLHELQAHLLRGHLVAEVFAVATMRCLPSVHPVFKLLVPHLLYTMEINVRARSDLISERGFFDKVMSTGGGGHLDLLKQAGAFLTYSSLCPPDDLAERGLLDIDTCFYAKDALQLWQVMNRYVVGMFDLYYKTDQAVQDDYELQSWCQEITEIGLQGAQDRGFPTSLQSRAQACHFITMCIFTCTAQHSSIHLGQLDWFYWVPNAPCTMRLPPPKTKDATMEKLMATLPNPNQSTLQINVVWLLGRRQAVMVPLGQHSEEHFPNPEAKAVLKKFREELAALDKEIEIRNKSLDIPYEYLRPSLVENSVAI
The series is described as follows: Inhibition of recombinant mouse N-terminal His-tagged ALOX15 expressed in Escherichia coli Rosetta2(DE3)pLysS at 2 uM using linoleic acid as substrate by HPLC analysis.

For series [14], the target named is T2, Polyunsaturated fatty acid lipoxygenase ALOX15 (Oryctolagus cuniculus). Nature of the series: Inhibition of wild type rabbit N-terminal His-tagged ALOX15 expressed in Escherichia coli assessed as decrease in Kcat using linoleic acid as substrate.
Series [15] shares this target. The series is described as follows: Inhibition of wild type rabbit N-terminal His-tagged ALOX15 expressed in Escherichia coli assessed as effect on Km using linoleic acid as substrate.
Series [16] concerns the target T3, Polyunsaturated fatty acid lipoxygenase ALOX15 (Mus musculus). The series is described as follows: Inhibition of recombinant mouse N-terminal His-tagged ALOX15 expressed in Escherichia coli Rosetta2(DE3)pLysS at 2 uM using arachidonic acid as substrate by HPLC analysis.
The target of series [17] is T2, Polyunsaturated fatty acid lipoxygenase ALOX15 (Oryctolagus cuniculus). Nature of the series: Inhibition of wild type rabbit N-terminal His-tagged ALOX15 expressed in Escherichia coli assessed as decrease in Kcat using arachidonic acid as substrate.
Series [18] addresses T4, Polyunsaturated fatty acid lipoxygenase ALOX15 (Homo sapiens) (UniProt P16050).
T4 sequence (whole entry): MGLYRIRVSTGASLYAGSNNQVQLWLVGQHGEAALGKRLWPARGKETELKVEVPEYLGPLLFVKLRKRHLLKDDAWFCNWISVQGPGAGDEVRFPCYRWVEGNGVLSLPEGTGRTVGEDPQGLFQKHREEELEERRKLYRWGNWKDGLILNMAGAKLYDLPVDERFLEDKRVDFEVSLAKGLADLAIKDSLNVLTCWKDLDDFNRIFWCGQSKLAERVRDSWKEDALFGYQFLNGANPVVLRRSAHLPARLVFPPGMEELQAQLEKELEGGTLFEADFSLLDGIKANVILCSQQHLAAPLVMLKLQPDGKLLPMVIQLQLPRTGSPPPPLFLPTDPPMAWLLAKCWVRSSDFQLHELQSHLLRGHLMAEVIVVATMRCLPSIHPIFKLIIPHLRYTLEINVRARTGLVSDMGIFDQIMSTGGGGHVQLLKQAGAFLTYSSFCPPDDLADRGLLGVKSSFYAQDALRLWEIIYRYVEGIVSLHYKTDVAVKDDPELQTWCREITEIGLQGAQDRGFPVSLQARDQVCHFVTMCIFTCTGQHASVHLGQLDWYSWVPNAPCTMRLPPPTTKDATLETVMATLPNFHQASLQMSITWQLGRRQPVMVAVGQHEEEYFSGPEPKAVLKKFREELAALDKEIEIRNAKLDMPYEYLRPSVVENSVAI
Nature of the series: Selectivity ratio of IC50 for inhibition of recombinant human N-terminal His-tagged ALOX15 expressed in Escherichia coli Rosetta2(DE3)pLysS using linoleic acid as substrate to IC50 for inhibition of recombinant human N-terminal His-tagged ALOX15 expressed in Escherichia coli Rosetta2(DE3)pLysS using arachidonic acid as substrate.

Compound in series [19]: COc1ccc(-c2cc3cc(F)ccc3[nH]2)cc1NS(=O)(=O)NC(=O)OCC(C)C
Nature of the series: Inhibition of wild type Rabbit N-terminal His-tagged ALOX15 expressed in Escherichia coli assessed as effect on Km using arachidonic acid as substrate. Conditions: Oryctolagus cuniculus.

Activity calls are given as the source filed them. The rule behind the calls is not given here.

Regarding `C=CCOC(=O)NS(=O)(=O)Nc1cccc(-c2cc3ccccc3[nH]2)c1`, the IC50 – broadly, the concentration that inhibits the measured activity by half – in series [1] was 15400 nM; in series [2] it was > 50000 nM.

As for `CCCCCc1ccc(S(=O)(=O)NCCc2nc(-c3ccccn3)[nH]c2-c2ccc(OC)cc2)cc1`, the Ratio IC50 in [3] is 0.02.

`CCCCCCCCOC(=O)NS(=O)(=O)Nc1cccc(-c2cc3ccccc3[nH]2)c1`: the Ki – broadly, a dissociation constant, usually derived from enzyme kinetics or from competition with a known ligand – in series [4] amounted to 3130 nM; in [6] it was 790 nM; in series [11], 790 nM. In addition, the outcome (in the series listed under Oryctolagus cuniculus [5]; in series [9]) was inactive. In addition, in series [7], the Ratio IC50 is 0.55. Moreover, the half-maximal inhibitory concentration (IC50) in series [8] is 7020 nM; in series [1], 1550 nM; in [10] it was 4950 nM; in series [2], 2790 nM.

Regarding `C=CCOC(=O)NS(=O)(=O)Nc1cc(-c2cc3cc(F)ccc3[nH]2)ccc1OC`, in [7], the Ratio IC50 is 0.023. In addition, the figures for the IC50 in series [1] and in series [2] were 540 nM and 23300 nM, respectively.

Regarding `CCCCc1ccc(S(=O)(=O)NCCc2c(-c3ccc(OC)cc3)[nH]c3ccccc23)cc1`, the Ratio IC50 in [3] was found to be 0.22.

As to `CCCCCCCCOC(=O)NS(=O)(=O)Nc1cc(-c2cc3cc(F)ccc3[nH]2)ccc1OC`, the Ratio IC50 in series [7] was found to be 0.043. The IC50 in series [1] came out at 47 nM; in [2] it was 1080 nM.

Take `CCCCCc1ccc(S(=O)(=O)NCCc2c[nH]c3ccccc23)cc1`: in [3], the Ratio IC50 turned out to be 0.8.

`C=CCOC(=O)NS(=O)(=O)Nc1cc(-c2cc3ccccc3[nH]2)ccc1OC`: the Ratio IC50 in series [7] worked out at 0.014. Moreover, the values for the IC50 in series [1] and in series [2] were 630 nM and 43300 nM, respectively.

As for `CCCCCCCCOC(=O)NS(=O)(=O)Nc1cc(-c2cc3ccccc3[nH]2)ccc1OC`, the result (in the series listed under Oryctolagus cuniculus [12]; in series [14]; in [15]) was Active. The inhibition result in [13] and in [16] was “inactive” throughout. In addition, the outcome in series [9] was inactive. Moreover, the inhibition result in series [17] is “Active”.

On to `CC(C)COC(=O)NS(=O)(=O)Nc1cccc(-c2cc3ccccc3[nH]2)c1`, for which the IC50 was 30000 nM in series [1] and > 50000 nM in series [2].

With `COc1ccc(-c2cc3ccccc3[nH]2)cc1NS(=O)(=O)NC(=O)OCC(C)C`, the IC50 was 1450 nM in series [1] and > 50000 nM in [2].

For the molecule `COc1ccc(-c2cc3cc(F)c(F)cc3[nH]2)cc1NS(=O)(=O)NC(=O)OCC(C)C`, the Ratio IC50 in [18] was determined as 0.03.

On to `COc1ccc(-c2cc3cc(F)ccc3[nH]2)cc1NS(=O)(=O)NC(=O)OCC(C)C`, for which the result in [14] and in series [15] was Active. Besides, the Ki in series [6] worked out at 290 nM. Moreover, the Ratio IC50 in [7] is 0.02. Further, the IC50 in series [1] was found to be 420 nM; in [2], 20800 nM. For the same molecule, in series [17], the inhibition entry is “Active”.

B1: Polyunsaturated fatty acid lipoxygenase ALOX15 (Oryctolagus cuniculus), P12530 (protein)
chain: T1 sequence (P12530 whole entry)
As for B1, the Km result in [19] was “Active”.
